One assay has as its target T1, β-Klotho (Homo sapiens, UniProt Q86Z14).
T1 construct: the ECD of human β-Klotho (aa1–992) fused with a 6 × His tag at the C-terminus; made in house
T1 sequence (Q86Z14 1-992): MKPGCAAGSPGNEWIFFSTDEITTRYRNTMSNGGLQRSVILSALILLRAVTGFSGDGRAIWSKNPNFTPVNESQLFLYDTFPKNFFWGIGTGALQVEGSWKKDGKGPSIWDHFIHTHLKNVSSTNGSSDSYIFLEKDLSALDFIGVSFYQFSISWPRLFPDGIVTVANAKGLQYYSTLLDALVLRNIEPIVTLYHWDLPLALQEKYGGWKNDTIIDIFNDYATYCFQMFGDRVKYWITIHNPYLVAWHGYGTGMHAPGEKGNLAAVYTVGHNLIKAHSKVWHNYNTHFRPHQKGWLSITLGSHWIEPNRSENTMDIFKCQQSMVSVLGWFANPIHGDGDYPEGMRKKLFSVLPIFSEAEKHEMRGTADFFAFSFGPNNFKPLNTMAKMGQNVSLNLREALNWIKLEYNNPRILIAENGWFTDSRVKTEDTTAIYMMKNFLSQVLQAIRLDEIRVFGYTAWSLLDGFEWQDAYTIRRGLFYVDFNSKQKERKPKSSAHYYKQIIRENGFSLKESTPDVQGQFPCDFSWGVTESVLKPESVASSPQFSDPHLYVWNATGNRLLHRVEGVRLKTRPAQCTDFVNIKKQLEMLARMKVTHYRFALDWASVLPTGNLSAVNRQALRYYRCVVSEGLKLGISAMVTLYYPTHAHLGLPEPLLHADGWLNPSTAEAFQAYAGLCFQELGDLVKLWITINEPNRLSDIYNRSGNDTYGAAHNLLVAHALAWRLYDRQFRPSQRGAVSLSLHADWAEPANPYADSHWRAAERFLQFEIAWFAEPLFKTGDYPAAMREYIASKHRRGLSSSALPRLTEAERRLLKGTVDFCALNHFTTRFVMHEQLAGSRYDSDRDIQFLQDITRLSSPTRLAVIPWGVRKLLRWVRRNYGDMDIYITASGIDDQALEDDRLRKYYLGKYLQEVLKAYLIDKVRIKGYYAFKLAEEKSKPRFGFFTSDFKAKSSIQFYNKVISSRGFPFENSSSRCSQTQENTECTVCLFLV
Nature of the assay: AlphaScreen competition binding assay (inhibition of β-Klotho binding to biotinylated FGF19 or FGF21). As to conditions: Suppl Fig S6A, 20 nM β-Klotho ECD 6×His, 40 nM biotinylated human FGF21, d.n.c. = did not converge. How it is done: FGF19 and FGF21 C-terminal WT and mutant peptides were custom synthesized and purified (>95% purity) (LifeTein LLC, South Plainfield, NJ). Binding of FGF19 and FGF21 peptides to β-Klotho was assessed using an AlphaScreen® assay. Briefly, 20 nM of β-Klotho ECD 6 × His, varying amounts of FGF19 and 21 peptides, and 40 nM of biotinylated human FGF19 or FGF21 protein were prepared in AlphaLISA universal buffer (PerkinElmer) and added to individual wells in 384-well white opaque plates (Greiner Bio-One). Subsequently, streptavidin donor beads and nickel chelate (Ni-NTA) acceptor beads (AlphaScreen Histidine detection kit; PerkinElmer) were diluted to 40 µg/mL and added to the plates. Total reaction volume was 8 µL. Plates were incubated for 3 hours at room temperature protected from light and read on the EnVision Multilabel Plate Reader (PerkinElmer) according to the manufacturer’s instructions. Assays were performed in triplicate. IC50 values were determined from a three-parameter logistic regression model with the least squares fit using GraphPad Prism version 7.
(Bead proximity is the source of the signal in Alpha formats.)

For another assay, the system named is β-Klotho/FGFR complex. Put plainly: Elk1-luciferase reporter assay in HEK293T reporter cells transiently transfected with full-length WT β-Klotho. The format is cell-based, human. As to conditions: 6 h treatment, mean ± SD of three independent experiments, read-out: EC50, stimulation of Elk1-luciferase reporter activity (KLB WT). How it is done: (§1) To measure the signaling activity of β-Klotho mutants, ELK luciferase assay was performed in HEK293T cells that were stably transfected with reporter constructs containing 5 × UAS upstream of luciferase and Gal4 DNA-binding domain fused to ELK1. Briefly, HEK293T reporter cells were maintained in DMEM supplemented with 10% (v/v) FBS (Gibco) and 2 mM GlutaMax (Gibco) in a 37 °C incubator with 5% CO2. Cells were plated on 96-well plates in growth medium and incubated overnight. The next day, cells were transfected with expression vectors encoding full-length β-Klotho WT or mutants using the Lipofectamine 2000 transfection reagent (Invitrogen) according to the manufacturer’s protocol. Cells were serum-starved in DMEM supplemented with 5% (v/v) FBS (Gibco) and 2 mM GlutaMax (Gibco) overnight the day after transfection and treated with FGF21 for 6 hours at 37 °C with 5% CO2, after which the cells were lysed in Bright-Glo luciferase reagent (Promega). Luciferase activity was measured in relative luminescence units on the EnVision Multilabel Plate Reader (PerkinElmer) according to the manufacturer’s instructions. All assays were performed in duplicates. EC50 values were determined from a three-parameter logistic regression model with the least squares fit using GraphPad Prism version 7.
A general note: In a reporter assay the amount or activity of a reporter protein is the signal.

Assay [1] deals with FGFR (expressed endogenously in HEK293T reporter cells). Nature of the assay: Elk1-luciferase reporter assay in HEK293T reporter cells without β-Klotho (no KLB). The format is cell-based, human. The following applies: d.n.c = did not converge. How it is done: as §1, with “The next day, cells were transfected with expression vectors encoding full-length β-Klotho WT or mutants using the Lipofectamine 2000 transfection reagent (Invitrogen) according to the manufacturer’s protocol.” left out

Read-outs that look alike come from different tables or passages of the source. No end group written: not given here.

Experimental findings from paper PMC6056499, “A systematic dissection of sequence elements determining β-Klotho and FGF interaction and signaling” (Scientific Reports, 2018) are described below.

On to PQPPDAGSSDPLSMVGPSQGRSPSYAS [188V-A], for which the “IC50, competition with FGF21 (FGF21 C-terminal peptides)” value at β-Klotho is “d.n.c”.
The same measure, in the same setting: the entry for PQPPDVGSSDALSMVGPSQGRSPSYAS [193P-A] is “d.n.c”.
By EC50 is commonly meant the concentration that produces a half-maximal response. In the case of “FGF1: a prototypical paracrine FGF [reference compound]”, the EC50 in the assay with β-Klotho/FGFR complex (Fig 3A) came to 0.038 ± 0.024 nM; in assay [1] (Fig 3A, mean ± SD of three independent experiments, read-out: EC50, stimulation of Elk1-luciferase reporter activity (no KLB)) it was 0.049 ± 0.037 nM.
On to “FGF19: mature human FGF19 protein, endocrine fibroblast growth factor”, for which the concentration for a half-maximal effect (EC50) in the assay on β-Klotho/FGFR complex (Fig 3D) was 2.88 ± 1.43 nM. Also, the “EC50, stimulation of Elk1-luciferase reporter activity (no KLB)” value in assay [1] (Fig 3D) is recorded as “d.n.c”.
As usually defined, the IC50 is the midpoint of a concentration-inhibition curve. Take PQPPDVGSSDPLSMVGPSQGASPSYAS [203R-A]: the IC50 on β-Klotho (read-out: IC50, competition with FGF21 (FGF21 C-terminal peptides)) is 7.3 nM.
